Assay in all cases: biochemical
The target of experiment [1] is DRB1*1302 (Homo sapiens, UniProt P01903+P01911, A100E/A169T/K41T/L162R/M171V/P40S/Q125H/Q178H/Q39Y/Q99D/R42S/S66N/T262R/V115G/W38E/Y61H). In kind it is binding.
The target in experiment [2] is DR7 (DRB1*0701) (Homo sapiens, UniProt P01903+P01911, A100R/A102G/A103Q/D57E/D86V/E43K/F76Y/K127E/L162R/M171V/P40G/Q125H/Q99D/R33Q/R42Y/R54Q/S133A/S66F/T210M/V115G/Y107V/Y59L/Y89S). Format: binding.
Experiment [3] concerns the target DRB1*1201 (Homo sapiens, UniProt P01903+P01911, A100R/A169T/D57E/D86V/F55L/H45Y/K41T/L162R/M171V/P40S/Q125H/Q178H/Q39Y/Q99D/R42G/S66L/T262R/V114A/V67L/W38E/Y59H/Y61H/Y89S). In kind it is binding.
The target in experiment [4] is DRB1*0301 (Homo sapiens, UniProt P01903+P01911, A100K/A102G/A103R/A169T/F55Y/I96L/K41T/L162R/M171V/P40S/Q125H/Q178H/Q39Y/R42S/S66N/T106N/T262R/W38E/Y61H). Format: binding.
The target of experiment [5] is DRB3*0101 (Homo sapiens, UniProt P01903+P79483). Format: binding.
In experiment [6] the target is DRB4*0101 (Homo sapiens, UniProt P01903+P13762, G164S). In kind it is binding.
The target in experiment [7] is DR1 (DRB1*0101) (Homo sapiens, UniProt P01903+P01911, A100R/D57E/F55L/F60I/F76Y/I96L/L162R/M171V/P40L/Q125E/R42F/V115G/Y59C). In kind it is binding.
Experiment [8] concerns the target DRB5*0101 (Homo sapiens, UniProt P01903+Q30154). The settings on record: Binding affinity DRB5 *0101.
Experiment [9] concerns the target DRB1*1101 (Homo sapiens, UniProt P01903+P01911, A100R/A169T/A87E/I96F/K41T/L162R/M171V/P40S/Q125H/Q178H/Q39Y/Q99D/R42S/S66Y/T262R/V115G/W38E). The conditions noted are these: Binding affinity DRB1 *1101.
Experiment [10] concerns the target DR4w4 (DRB1*0401) (Homo sapiens, UniProt P01903+P01911, A100K/A169T/F76Y/I96L/K127E/L162R/M171V/N62H/P40V/Q125Y/R42H/S133A/S149N/S66Y/V115G/V209L/W38E). In kind it is binding.
In experiment [11] the target is DRB1*1501 (Homo sapiens, UniProt P01903+P01911). In kind it is binding.
For experiment [12], the target named is DRB1*0405 (Homo sapiens, UniProt P01903+P01911, A100R/A169T/D86S/F76Y/I96L/K127E/L162R/M171V/N62H/P40V/Q125Y/R42H/S133A/S149N/S66Y/V115G/V209L/W38E). In kind it is binding.
In experiment [13] the target is DRB1*0802 (Homo sapiens, UniProt P01903+P01911, A100R/A103L/A169T/F76Y/H45Y/I96F/K41T/L162R/M171V/P40S/Q125H/Q178H/Q39Y/Q99D/R218S/R42G/S66Y/V115G/W38E). In kind it is binding.
Experiment [14] addresses DRB1*0901 (Homo sapiens, UniProt P01903+P01911, A100R/A103E/D57H/D86V/F55Y/F60I/F76Y/I96F/K127E/L162R/M171V/P40D/Q125H/Q99R/R33Q/R42F/S133A/S66N/T210M/V115G/W38K/Y107V/Y59G/Y89S). In kind it is binding.

No end group written: not given here.

Chain of DRB1*0301 (P01903 26-254 limits assumed, other chains not shown): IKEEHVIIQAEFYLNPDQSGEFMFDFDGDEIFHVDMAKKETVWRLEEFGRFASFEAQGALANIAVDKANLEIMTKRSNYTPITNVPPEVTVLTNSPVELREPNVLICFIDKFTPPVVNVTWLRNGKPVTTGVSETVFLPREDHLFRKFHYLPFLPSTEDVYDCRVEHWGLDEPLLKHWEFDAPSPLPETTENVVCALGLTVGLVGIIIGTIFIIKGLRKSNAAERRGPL
Chain of DRB1*1101 (P01903 26-254 limits assumed, other chains not shown): as above
Chain of DRB1*1302 (P01903 26-254 limits assumed, other chains not shown): as above

Turning to `CC[C@H](C)[C@H](NC(=O)CNC(=O)[C@H](Cc1ccc(O)cc1)NC(=O)[C@H](CC(C)C)NC(=O)[C@H](CO)NC(=O)[C@H](CC(C)C)NC(=O)[C@H](CC(C)C)NC(=O)[C@H](CO)NC(=O)[C@@H](N)CC(C)C)C(=O)N[C@@H](Cc1c[nH]cn1)C(=O)N[C@@H](CCCCN)C(=O)N[C@@H](CCC(N)=O)C(=O)N[C@@H](CCCCN)C(=O)N[C@@H](CCC(=O)O)C(=O)N[C@@H](CCCCN)C(=O)O` [Peptide 68.0045], the IC50 (in general, the concentration at which inhibition is half-maximal) in [1] is above 20 µM; in experiment [2] it was above 20 µM; in experiment [3] it was 0.647 µM; in [4], above 20 µM; in experiment [5], above 20 µM.
Consider `CSCC[C@H](NC(=O)[C@H](CC(=O)O)NC(=O)[C@H](Cc1ccc(O)cc1)NC(=O)[C@H](CC(C)C)NC(=O)[C@@H]1CCCN1C(=O)[C@H](Cc1c[nH]cn1)NC(=O)[C@@H]1CCCN1C(=O)[C@H](Cc1ccccc1)NC(=O)[C@H](CO)NC(=O)[C@H](Cc1c[nH]cn1)NC(=O)[C@H](CO)NC(=O)[C@@H](NC(=O)[C@H](CCC(N)=O)NC(=O)[C@H](Cc1ccccc1)NC(=O)[C@@H](N)C(C)C)C(C)C)C(=O)O` [Peptide 68.0070], for which the IC50 is above 20 µM in [6], 2.48 µM in [3], above 20 µM in experiment [4] and above 20 µM in [5].
With `CC(C)C[C@H](NC(=O)[C@H](CC(=O)O)NC(=O)[C@@H](NC(=O)[C@@H](NC(=O)[C@H](CCC(=O)O)NC(=O)[C@@H]1CCCN1C(=O)[C@H](CCC(N)=O)NC(=O)[C@H](CC(C)C)NC(=O)[C@H](CC(=O)O)NC(=O)[C@@H](N)CC(C)C)[C@@H](C)O)[C@@H](C)O)C(=O)N[C@@H](Cc1ccc(O)cc1)C(=O)N[C@@H](CS)C(=O)N[C@@H](Cc1ccc(O)cc1)C(=O)N[C@@H](CCC(=O)O)C(=O)N[C@@H](CCC(N)=O)C(=O)O` [Peptide 1543.04], the half-inhibitory concentration (IC50) in [7] was above 20 µM; in experiment [1] it was above 20 µM; in experiment [2] it was above 20 µM; in [8] it was above 20 µM; in experiment [9] it was above 20 µM; in experiment [10] it was 1.9 µM. The IC50 in [11] was above 20 µM; in experiment [3] it was above 20 µM; in experiment [4], 0.59 µM; in experiment [12] it was above 20 µM; in experiment [13], above 20 µM; in experiment [14], above 20 µM. This compound displayed an IC50 in experiment [5] above 20 µM.
For EYVLDLYPEPTDLYC [Peptide 1543.12], the IC50 in [7] is 9.08 µM; in [1], above 20 µM; in experiment [2], above 20 µM; in experiment [8], above 20 µM; in experiment [6], 0.159 µM; in experiment [9], above 20 µM. The IC50 was 13 µM in experiment [11]; 2.21 µM in experiment [3]; 0.76 µM in [4]; 5.88 µM in [12]; above 20 µM in [13]; above 20 µM in experiment [14]. This compound showed an IC50 in experiment [5] of 0.734 µM.
As to KERHVNANKRFHNIM [Peptide 1543.59], the IC50 in experiment [7] came out at 0.413 µM; in [1], 0.0052 µM; in experiment [8], 0.502 µM; in experiment [6], 8.48 µM; in [9], 0.083 µM; in experiment [10], 0.055 µM. Further, the IC50 in experiment [11] is 12.9 µM; in [3], 0.26 µM; in experiment [4], 1.35 µM; in [12] it was 0.026 µM; in experiment [13] it was 1.23 µM; in [14], 2.85 µM. Moreover, the IC50 in experiment [5] is above 20 µM.
LCVNSTASDLRTIQQ [Peptide 1543.15]: the IC50 in experiment [7] was 1.58 µM; in experiment [2], 0.723 µM; in experiment [8], above 20 µM; in [6] it was 2.11 µM; in [10], 0.063 µM; in [11], above 20 µM. Also, the IC50 in experiment [3] was 1.59 µM; in experiment [4], 6.23 µM; in [12], 0.49 µM; in experiment [13], 4.38 µM; in experiment [14] it was above 20 µM; in experiment [5], above 20 µM.
Regarding PDGQAEQATSNYYIV [Peptide 1543.43], the IC50 was above 20 µM in experiment [7]; above 20 µM in experiment [1]; 0.051 µM in experiment [2]; above 20 µM in [8]; above 20 µM in experiment [6]; above 20 µM in experiment [11]. The IC50 in experiment [3] is above 20 µM; in experiment [4], above 20 µM; in experiment [12], 5.12 µM; in [13], above 20 µM; in [14], 2.33 µM; in experiment [5], above 20 µM.
Turning to QRFHNIRGRWTGRCM [Peptide 1543.27], the IC50 in experiment [7] is 0.036 µM; in experiment [1], 5.31 µM; in experiment [8], 0.919 µM; in experiment [6], 4.55 µM; in experiment [9], 0.574 µM; in experiment [10], 2.9 µM. The IC50 in experiment [11] was 17.2 µM; in experiment [3] it was 14.6 µM; in experiment [4] it was above 20 µM; in experiment [12] it was 4.47 µM; in experiment [13] it was 0.894 µM; in [14], above 20 µM. For the same compound, in experiment [5], the IC50 is above 20 µM.
On to RFHNIMGRWTGRCSE [Peptide 1543.60], for which the IC50 in experiment [7] came to 0.0056 µM; in [8], 0.374 µM; in experiment [6], 1.12 µM; in [9], 0.024 µM; in experiment [10] it was 0.332 µM; in experiment [11], 0.123 µM. Besides, the IC50 in [3] was 18.3 µM; in experiment [4] it was 5.48 µM; in [12], 1.84 µM; in experiment [13], 0.027 µM; in experiment [14], 8.86 µM; in experiment [5], 7.84 µM.
For the compound RREVYDFAFRDLCIV [Peptide 1543.25], the IC50 was above 20 µM in experiment [7]; above 20 µM in [1]; 0.073 µM in experiment [2]; 19.8 µM in [8]; 2.46 µM in experiment [6]; above 20 µM in experiment [9]. Besides, the IC50 is 4.03 µM in [10]; above 20 µM in experiment [11]; 11 µM in experiment [3]; 11 µM in [4]; 9.03 µM in experiment [13]; above 20 µM in experiment [14]. Further, the IC50 in experiment [5] is above 20 µM.
Consider SEVYDFVFADLRIVY [Peptide 1543.48], for which the IC50 was 0.412 µM in [7]; 0.046 µM in experiment [1]; 0.051 µM in [2]; 2.35 µM in experiment [8]; 1.42 µM in experiment [6]; above 20 µM in experiment [9]. Further, the IC50 was determined as 0.62 µM in [10]; 8.09 µM in [3]; 0.0057 µM in [4]; 2.92 µM in [12]; 4.04 µM in experiment [13]; 0.033 µM in [14]. In addition, in [5], the IC50 stood at 0.558 µM.
Take TRPRTLHELCEVLEE [Peptide 1543.42]: the IC50 is 18 µM in experiment [7]; above 20 µM in [1]; above 20 µM in [2]; above 20 µM in [8]; 2.59 µM in [6]; above 20 µM in experiment [9]. Besides, the IC50 in [11] was above 20 µM; in experiment [3], above 20 µM; in experiment [4], above 20 µM; in [12] it was 0.674 µM; in experiment [13], above 20 µM; in [14] it was above 20 µM. In addition, the IC50 in [5] was above 20 µM.

The record behind these values is patent US9340577B2, “HLA binding motifs and peptides and their uses” (priority 1992, dated 2016).
